Values of other authors as cited in patent US7097855B1, “Transdermal thermal polymerization” (Massachusetts Institute of Technology, priority 2000, dated 2006).

Tests used:
[1] = at 20° C.
[2] = system: rat

CC(C)(N=NC(C)(C)C1=NCCN1)C1=NCCN1.Cl.Cl [AZODIA HCl, 2,2′-azobis-(N,N′-dimethyleneisobutyramidine) dihydrochloride]
water solubility [1]: 35.2 g/100 g solvent | LD50 (oral, rat), female ([2]; female): 2800 mg/kg | LD50 (oral, rat), male ([2]; male): 3200 mg/kg
